Organism: Rattus norvegicus
Assay: Open TG-GATES - Regimen: Single
Assay type: toxicity, organism-based, Sprague-Dawley
Design: regimen Single, gender Male, age 6 weeks
Conditions: in vivo, po, 1000 mg/kg, route gavage, dose level High; for APTT / Bas / Eos / Fbg / Hb / Ht / Lym / MCH / MCHC / MCV / Mono / Neu / PT / Plat / RBC / Ret / WBC: tissue Blood; for KIDNEY_L / KIDNEY_R / KIDNEY_TOTAL: tissue Kidney; for LIVER: tissue Liver; for A/G / ALP / ALT / AST / BUN / CRE / Ca / Cl / DBIL / GLC / IP / K / LDH / Na / PL / RALB / TBIL / TC / TG / TP / gamma-GTP: tissue Plasma

O=C(N[C@H](CO)[C@H](O)c1ccc([N+](=O)[O-])cc1)C(Cl)Cl [CHLORAMPHENICOL]
TERMINAL_BW (3 h): 221.6 g | APTT (3 h): 17.1 s | Bas (3 h): 0% | Eos (3 h): 1% | Fbg (3 h): 263.6 mg/dL | Hb (3 h): 13.5 g/dL | Ht (3 h): 39.6% | Lym (3 h): 73% | MCH (3 h): 21.7 pg | MCHC (3 h): 34.2% | MCV (3 h): 63.7 fL | Mono (3 h): 3.8% | Neu (3 h): 21.8% | PT (3 h): 14.9 s | Plat (3 h): 112.6 x10_4/uL | RBC (3 h): 622.4 x10_4/ul | Ret (3 h): 7.8% | WBC (3 h): 76.3 x10_2/uL | KIDNEY_L (3 h): 1 g | KIDNEY_R (3 h): 1 g | KIDNEY_TOTAL (3 h): 2 g | LIVER (3 h): 9.5 g | A/G (3 h): 0.9 | ALP (3 h): 1586 IU/L | ALT (3 h): 42 IU/L | AST (3 h): 78.4 IU/L | BUN (3 h): 8.4 mg/dL | CRE (3 h): 0.2 mg/dL | Ca (3 h): 10.9 mg/dL | Cl (3 h): 106.6 meq/L | DBIL (3 h): 0.012 mg/dL | GLC (3 h): 182.4 mg/dL | IP (3 h): 9 mg/dL | K (3 h): 4.2 meq/L | LDH (3 h): 56.4 IU/L | Na (3 h): 140 meq/L | PL (3 h): 137.2 mg/dL | RALB (3 h): 2.6 g/dL | TBIL (3 h): 0.064 mg/dL | TC (3 h): 70.4 mg/dL | TG (3 h): 63 mg/dL | TP (3 h): 5.5 g/dL | gamma-GTP (3 h): 1 IU/L | TERMINAL_BW (6 h): 221.4 g | APTT (6 h): 16.8 s | Bas (6 h): 0% | Eos (6 h): 1% | Fbg (6 h): 278.4 mg/dL | Hb (6 h): 13.9 g/dL | Ht (6 h): 45.6% | Lym (6 h): 73.8% | MCH (6 h): 21.1 pg | MCHC (6 h): 30.4% | MCV (6 h): 69.3 fL | Mono (6 h): 2% | Neu (6 h): 23.2% | PT (6 h): 15 s | Plat (6 h): 113 x10_4/uL | RBC (6 h): 657.2 x10_4/ul | Ret (6 h): 7.7% | WBC (6 h): 59.5 x10_2/uL | KIDNEY_L (6 h): 0.9 g | KIDNEY_R (6 h): 0.9 g | KIDNEY_TOTAL (6 h): 1.8 g | LIVER (6 h): 8.5 g | A/G (6 h): 0.9 | ALP (6 h): 1369 IU/L | ALT (6 h): 33.2 IU/L | AST (6 h): 69 IU/L | BUN (6 h): 7.8 mg/dL | CRE (6 h): 0.2 mg/dL | Ca (6 h): 11.1 mg/dL | Cl (6 h): 107 meq/L | DBIL (6 h): 0.01 mg/dL | GLC (6 h): 186.2 mg/dL | IP (6 h): 10.3 mg/dL | K (6 h): 4.1 meq/L | LDH (6 h): 57.6 IU/L | Na (6 h): 141.4 meq/L | PL (6 h): 128.2 mg/dL | RALB (6 h): 2.6 g/dL | TBIL (6 h): 0.072 mg/dL | TC (6 h): 70 mg/dL | TG (6 h): 26.2 mg/dL | TP (6 h): 5.5 g/dL | gamma-GTP (6 h): 1 IU/L | TERMINAL_BW (9 h): 221.1 g | APTT (9 h): 17 s | Bas (9 h): 0% | Eos (9 h): 0.8% | Fbg (9 h): 281.4 mg/dL | Hb (9 h): 13.8 g/dL | Ht (9 h): 44% | Lym (9 h): 80.2% | MCH (9 h): 21.4 pg | MCHC (9 h): 31.4% | MCV (9 h): 68.2 fL | Mono (9 h): 1.6% | Neu (9 h): 17.8% | PT (9 h): 15.6 s | Plat (9 h): 107.2 x10_4/uL | RBC (9 h): 644.8 x10_4/ul | Ret (9 h): 7.5% | WBC (9 h): 53.4 x10_2/uL | KIDNEY_L (9 h): 0.9 g | KIDNEY_R (9 h): 0.9 g | KIDNEY_TOTAL (9 h): 1.8 g | LIVER (9 h): 8.5 g | A/G (9 h): 0.9 | ALP (9 h): 1491.8 IU/L | ALT (9 h): 30 IU/L | AST (9 h): 68 IU/L | BUN (9 h): 8.2 mg/dL | CRE (9 h): 0.2 mg/dL | Ca (9 h): 10.9 mg/dL | Cl (9 h): 105.4 meq/L | DBIL (9 h): 0.018 mg/dL | GLC (9 h): 176.6 mg/dL | IP (9 h): 10.6 mg/dL | K (9 h): 4.2 meq/L | LDH (9 h): 69.6 IU/L | Na (9 h): 140 meq/L | PL (9 h): 125.8 mg/dL | RALB (9 h): 2.5 g/dL | TBIL (9 h): 0.074 mg/dL | TC (9 h): 66.6 mg/dL | TG (9 h): 44 mg/dL | TP (9 h): 5.5 g/dL | gamma-GTP (9 h): 1 IU/L | TERMINAL_BW (24 h): 222.4 g | APTT (24 h): 16.6 s | Bas (24 h): 0% | Eos (24 h): 0.8% | Fbg (24 h): 255.8 mg/dL | Hb (24 h): 14.2 g/dL | Ht (24 h): 44.2% | Lym (24 h): 83% | MCH (24 h): 21.3 pg | MCHC (24 h): 32.1% | MCV (24 h): 66.4 fL | Mono (24 h): 4% | Neu (24 h): 11.6% | PT (24 h): 15.7 s | Plat (24 h): 121.3 x10_4/uL | RBC (24 h): 665 x10_4/ul | Ret (24 h): 6.3% | WBC (24 h): 54.2 x10_2/uL | KIDNEY_L (24 h): 0.9 g | KIDNEY_R (24 h): 0.9 g | KIDNEY_TOTAL (24 h): 1.9 g | LIVER (24 h): 9.4 g | A/G (24 h): 0.9 | ALP (24 h): 1571.8 IU/L | ALT (24 h): 45.8 IU/L | AST (24 h): 79.2 IU/L | BUN (24 h): 14.4 mg/dL | CRE (24 h): 0.2 mg/dL | Ca (24 h): 11.6 mg/dL | Cl (24 h): 106.8 meq/L | DBIL (24 h): 0.016 mg/dL | GLC (24 h): 184.8 mg/dL | IP (24 h): 9.1 mg/dL | K (24 h): 4.1 meq/L | LDH (24 h): 64 IU/L | Na (24 h): 142.2 meq/L | PL (24 h): 122.4 mg/dL | RALB (24 h): 2.6 g/dL | TBIL (24 h): 0.068 mg/dL | TC (24 h): 65.2 mg/dL | TG (24 h): 50.8 mg/dL | TP (24 h): 5.6 g/dL | gamma-GTP (24 h): 1 IU/L
